Experimental data taken from ChEMBL document CHEMBL1649085.

Legend:
Type in all cases: ADME, organism-based
[1] = tested on: Brain; assay: Drug uptake in rat brain at 10 mg/kg, po; design: dose 10 mg/kg, route oral; conditions: in vivo, read-out: Drug uptake
[2] = AUC (0 to time) in rat at 10 mg/kg, po; design: dose 10 mg/kg, route oral; conditions: plasma
[3] = Tmax in rat at 10 mg/kg, po; design: dose 10 mg/kg, route oral; conditions: in vivo
[4] = Ratio of drug level in brain to plasma in rat at 10 mg/kg, po; design: dose 10 mg/kg, route oral
[5] = Cmax in rat at 10 mg/kg, po; design: dose 10 mg/kg, route oral; conditions: in vivo
[6] = tested on: Plasma; assay: Drug uptake in rat plasma at 10 mg/kg, po; design: dose 10 mg/kg, route oral; conditions: in vivo
[7] = Oral bioavailability in rat at 10 mg/kg, po; conditions: in vivo

Compound	concentration [1] [µM]	AUC(0-t) [2] [µM·h]	Tmax [3] [h]	BPR [4]	Cmax [5] [µM]	concentration [6] [nM]	bioavailability [7] [%]
O=C(O)c1cc(-c2cccc(COc3ccc4c(c3)CN(C3CCCC3)C4=O)c2)ccc1Cl	3.8	106	1.33	0.3	14.4	12300	40
Cc1c(OCc2cccc(-c3ccc(C(=O)O)cc3)c2)cc2c(c1C)C(=O)C(C1CCCC1)C2 (stereo not drawn)		0.281	2		0.097	27	33
O=C(O)c1cc(-c2cccc(COc3ccc4c(=O)n(C5CCCC5)sc4c3)c2)ccc1Cl	4.8	43.3	1.83	4.8	4.1	1000	
